Assay results: patent US11447479B2, “Compounds active towards nuclear receptors” (NUEVOLUTION A/S, priority 2019, dated 2022)

Experiments:
[1] = target: T1, RORγ (Homo sapiens, UniProt P51449); assay: RORγ Reporter Assay (Gal4); type: cell-based; settings: HEK293 co-transfected with RORγ LBD-Gal4 and luciferase reporter, 24 h incubation, absolute IC50; read-out: IC50
T1 construct: Gal4 (galactose-responsive transcription factor); expressed in transfected cells; host or cells: HEK293
T1 sequence (P51449 269-508 limits assumed): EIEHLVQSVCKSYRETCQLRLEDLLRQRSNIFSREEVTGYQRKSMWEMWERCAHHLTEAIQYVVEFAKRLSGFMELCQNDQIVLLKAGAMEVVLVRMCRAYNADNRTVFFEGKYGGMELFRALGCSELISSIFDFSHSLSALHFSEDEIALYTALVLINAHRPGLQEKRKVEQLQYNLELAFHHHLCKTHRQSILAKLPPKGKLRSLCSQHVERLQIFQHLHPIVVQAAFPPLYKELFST
Procedure: RORγ Reporter Assay (Gal4)
The HEK293 cell line is co-transfected transiently with two plasmids, one with the RORγ ligand-binding domain fused to galactose-responsive transcription factor (Gal4), and the other with the luciferase reporter gene and Gal binding sites (UAS). This construction allows to determine the RORγ activity in a cellular system through the measurement of luminescence.
A suspension of RORγ reporter cells was dispensed into plates and cultured 2 h at 37° C. and 5% CO2. Media formulation consisted in DMEM/F-12 medium (Gibco) supplemented with 10% heat inactivated FBS (Sigma-Aldrich), non-essential aminoacids (Sigma-Aldrich), 2 mM Glutamax (Gibco) and 100 U/mF penicillin (Sigma-Aldrich). Dose-response curves with compounds were prepared in 100% DMSO and further diluted […] in culture medium. Compound solutions were added to the plate containing cells (final DMSO concentration of 0.1%) and incubated for 24 h at 37° C. and 5% CO2. Luciferase detection reagent was added to each well, and relative light units […] were quantified from each assay well using a plate reading luminometer.
Values of average RFU±S.D. were computed for all treatment sets, followed by the calculations of percent-reduction of RORγ activity in response to respective test compound. The following formula was used: activity=100*[1−[x test compound/average vehicle]where the theoretical minimum reduction (0% reduction).

[2] = test system: Collagen-induced arthritis; assay: Collagen-Induced Arthritis (CIA) study; type: in vivo; settings: 10 mpk po bid, male DBA/1J mice
Procedure: Collagen-Induced Arthritis (CIA) Study Collagen-induced arthritis is an animal model of rheumatoid arthritis used to evaluate the efficacy of test compounds. CIA was induced at Washington Biotechnology Inc. (Baltimore) in male DBA/1J mice (Jackson Laboratories) by subcutaneous injection at the base of the tail with 50 μl of a bovine collagen/complete Freund's adjuvant emulsion. After 21 days, the mice were further boosted by a further subcutaneous injection of 50 μl of a collagen/incomplete Freund's adjuvant emulsion. For treatment, compound or vehicle (2% DMSO, 10% HP—β-CD in MilliQ water) was given orally twice daily at various doses selected from 3, 10, 30 mg/kg, beginning at the day of CIA induction (Prophylactic setting), or after disease initiation (at day 27, therapeutic setting). Treatment lasted until day 41, and the animals were scored three times weekly. Each paw was scored and the sum of all four scores was recorded as the Arthritic Index (AI). The maximum possible AI was 16. 0=no visible effects of arthritis; 1=edema and/or erythema of one digit; 2=edema and/or erythema of 2 joints; 3=edema and/or erythema of more than 2 joints; 4=severe arthritis of the entire paw and digits including limb deformation and ankylosis of the joint. […] At 10 mpk po bid, H6-13-2 Arthritis Index (AI) decreased with 83% of the effect of the mouse aIL-17A antibody. […]

[3] = test system: Th17 cells; assay: Th17 assay (IL-17 in supernatants of differentiating human naive CD4+ T cells, ELISA); type: cell-based; settings: 168 h, Th17 differentiation for seven days with test compound, IL-17 levels in supernatants by ELISA
Procedure: Th17 Assay (Another Suitable Assay)
The following modifications were made to the manufacturer's protocol: 1) Incubation with Biotin-Antibody Cocktail and Anti-Biotin MicroBeads was prolonged to 30 minutes, and 2) Cells were washed with 40 mL of Miltenyi buffer. Differentiation of Th17 cells in anti-CD3 (BD Pharmingen, 5 μg/ml) coated 96-well plates (400,000 cells/well, 160 μl RPMI1640+10% Fetal Bovine Serum) containing 5 μg/ml anti-CD28 (BD Pharmingen), 10 ng/ml IL-2 (R&D Systems), 2.5 ng/ml TGFβ-1 (R&D Systems), 20 ng/ml IL-1β (R&D Systems), 20 ng/ml IL-6 (R&D Systems), 30 ng/ml IL-23 (R&D Systems), 2.5 μg/ml anti-IL-4 (R&D Systems) and 1 μg/ml anti-IFNγ (R&D Systems) and with test compound during the entire differentiation (or vehicle, 0.1% DMSO for control). Test compounds were tested in triplicates, diluted 1000-fold in medium (final DMSO concentration is 0.1%). Incubated for seven days at 37° C., 5% CO2, 95% humidity, and 2-fluoro-4′-[[4-(4-pyridinylmethyl)-1-piperazinyl]methyl]-α,α-bis(trifluoromethyl)-[1,1′-biphenyl]-4-methanol (SR2211 Calbiochem, Cat. No. 557353) was used as positive control. As negative control, cells were differentiated into Th0 using 5 μg/ml anti-CD28 (BD Pharmingen), 10 ng/ml IL-2 (R&D Systems), 2 μg/ml anti-IL4 (R&D Systems) and 2 μg/ml anti-IFNγ (R&D Systems) are negative control. IL-17 levels in supernatants were measured with ELISA (R&D Systems).

[4] = test system: plasma IL-17A; assay: In vivo IL-17A induction in anti-CD3 model in mice; settings: oral gavage twice daily day 0 to day 3, plasma IL-17A by ELISA, C57BL/6JRj mice
Procedure: In Vivo IL-17A Induction in Anti-CD3 Model in Mice
Male C57BL/6JRj mice (7 week old) were purchased from Janvier Labs and housed at the animal facilities of Almirall throughout the study. Animals were allowed to condition for 5 days in their new environment at 22° C.±2° C., 55%±10% relative humidity and 12 h:12 h light:dark cycles. Animals were housed in polycarbonate cages, with free access to water and non-purified stock diet (2014 Teklad Global 14% Protein Rodent Maintenance Diet, Envigo) during the full course of the studies. Care of animals was undertaken in compliance with the European Committee Directive 2010/63/EU, and the Catalan and Spanish law. […]
Plasma levels of IL-17A were measured by ELISA (R&D Systems) according to the manufacturer's instruction. Results were calculated as the percentage of reduction of plasma IL-17A versus the difference between non-induced and anti-CD3e induced groups through the formula: inhibition=100*[1−[(x−mean non-induced)/(mean control vehicle−mean non-induced)]]. The IL-17A inhibition for each treatment can be expressed as the mean for each treatment group±S.E.M. Statistical analysis of data were conducted with one-way ANOVA followed by Dunnett's multiple comparisons test when appropriate. […]

Row | SMILES | IC50 [1] [nM] | Arthritis Index (AI) decrease as % of the effect of the mouse aIL-17A antibody [2] [%] | IC50 [3] [nM] | Inhibition of IL-17A (%) at 3 mg/kg [4] [%]
1 | NC(=O)CN1CC[C@H](CNc2ncnc(N3CCOC[C@@H]3c3ccc(C(F)(F)F)cn3)c2F)[C@@H](F)C1 (single isomer, unassigned) [Example H6-13-2, 2-((3R*,4R*)-3-fluoro-4-(((5-fluoro-6-((S)-3-(5-(trifluoromethyl)pyridin-2-yl)morpholino)pyrimidin-4-yl)amino)methyl)piperidin-1-yl)acetamide] | 54 | 83 | 93 | 
2 | NC(=O)CN1CCC(CNc2ncnc(N3CCOC[C@@H]3c3ccc(C(F)(F)F)cc3)c2F)CC1 [Example H6-5, (S)-2-(4-(((5-fluoro-6-(3-(4-(trifluoromethyl)phenyl)morpholino)pyrimidin-4-yl)amino)methyl)piperidin-1-yl)acetamide] | 70 |  | 161 | 
3 | NC(=O)CN1CCC(CNc2ncnc(N3CC(F)(F)C[C@@H]3c3ccc(C(F)(F)F)cn3)c2F)C(F)(F)C1 (single isomer, unassigned) [Example H6-19-2, 2-((R*)-4-(((6-((R)-4,4-difluoro-2-(5-(trifluoromethyl)pyridin-2-yl)pyrrolidin-1-yl)-5-fluoropyrimidin-4-yl)amino)methyl)-3,3-difluoropiperidin-1-yl)acetamide] | 46 |  |  | 
4 | NC(=O)CN1CC[C@H](CNc2ncnc(N3CCOC[C@@H]3c3ccc(C(F)(F)F)cc3)c2F)[C@@H](F)C1 (single isomer, unassigned) [Example H6-10-1, 2-((3R*,4R*)-3-fluoro-4-(((5-fluoro-6-((S)-3-(4-(trifluoromethyl)phenyl)morpholino)pyrimidin-4-yl)amino)methyl)piperidin-1-yl)acetamide] | 39 |  |  | 
5 | NC(=O)CN1CC[C@H](CNc2ncnc(N3CCOC[C@@H]3c3ccc(C(F)(F)F)cn3)c2F)[C@@H](F)C1 (single isomer, unassigned) [Example H6-13-1, 2-((3R*,4R*)-3-fluoro-4-(((5-fluoro-6-((S)-3-(5-(trifluoromethyl)pyridin-2-yl)morpholino)pyrimidin-4-yl)amino)methyl)piperidin-1-yl)acetamide] | 160 |  |  | 
6 | NC(=O)CN1CCC(CNc2ncnc(N3CCOC[C@@H]3c3ccc(C(F)(F)F)cn3)c2F)C(F)(F)C1 (single isomer, unassigned) [Example H6-11-2, 2-((R*)-3,3-difluoro-4-(((5-fluoro-6-((S)-3-(5-(trifluoromethyl)pyridin-2-yl)morpholino)pyrimidin-4-yl)amino)methyl)piperidin-1-yl)acetamide] | 66 | 61 | 82 | 
7 | NC(=O)CN1CC[C@H](CNc2ncnc(N3CC(F)(F)C[C@@H]3c3ccc(C(F)(F)F)cn3)c2F)[C@@H](F)C1 (single isomer, unassigned) [Example H6-18-1, 2-((3R*,4R*)-4-(((6-((R)-4,4-difluoro-2-(5-(trifluoromethyl)pyridin-2-yl)pyrrolidin-1-yl)-5-fluoropyrimidin-4-yl)amino)methyl)-3-fluoropiperidin-1-yl)acetamide] | 140 |  |  | 
8 | C[C@@H]1COC[C@H](c2cccc(C(F)(F)F)c2)N1c1ncnc(NC[C@@H]2CCN(CC(N)=O)C[C@H]2O)c1F (single isomer, unassigned) [Example H6-21-4] | 120 |  |  | 
9 | NC(=O)CN1CC[C@H](CNc2ncnc(N3CC(F)(F)C[C@@H]3c3ccc(C(F)(F)F)cc3)c2F)[C@@H](O)C1 (single isomer, unassigned) [Example H6-17-1, 2-((3R*,4R*)-4-(((6-((R)-4,4-difluoro-2-(4-(trifluoromethyl)phenyl)pyrrolidin-1-yl)-5-fluoropyrimidin-4-yl)amino)methyl)-3-hydroxypiperidin-1-yl)acetamide] | 26 |  |  | 67
10 | NC(=O)CN1CCC(CNc2ncnc(N3CC(F)(F)CC3c3ccc(C(F)(F)F)cc3)c2F)CC1 (stereo not shown) [Example H6-24, 2-(4-(((6-(4,4-difluoro-2-(4-(trifluoromethyl)phenyl)pyrrolidin-1-yl)-5-fluoropyrimidin-4-yl)amino)methyl)piperidin-1-yl)acetamide] | 140 |  |  | 
